One may read the IC50 as the concentration needed to halve the response being measured.

Data on 6 compounds can be found in patent publication US6444144B1, “Polyethoxylated ascorbic acid derivatives as a novel antioxidant and process for preparing thereof” (LG Chemical Ltd., priority 1998, dated 2002).

Read-outs that look alike come from different tables or passages of the source.

Data set [1] deals with Tyrosinase extracted from mushrooms. Briefly: Inhibitory activity against tyrosinase. The class given is biochemical. The note with it: L-tyrosine substrate, DOPA cofactor, pH 6.8, 37° C., 10 minutes, absorbance at 475 nm. The protocol: Tyrosinase extracted from mushrooms was purchases from Sigma Co. First, L-tyrosine as a substrate was dissolved in a 0.05M phosphate buffer solution (pH 6.8) to have a concentration of 1.5 mM. 0.01 ml of this solution was added to a 0.3 ml spectrophotometer cuvette, followed by 0.01 ml of 0.06 mM dihydroxyphenylalamine (DOPA) as a cofactor. To this solution were added compounds of Formulas (II) and (III) and the phosphate buffer solution to have the total volume of 0.1 ml. […] Meanwhile, a blank was prepared by adding only 0.1 ml of the phosphate buffer solution. The reaction was performed at 37° C. for 10 minutes. The absorbance was measured at 475 nm with a spectrophotometer (Beckman DU-7500) to determine the inhibitory rate against tyrosinase. IC50 value was determined as the concentration of the inhibitor whose inhibitory rate against the enzyme amounts to 50%. Inhibitory Rate(%)=[(A−B)/A]×100 wherein A is the absorbance at 475 nm in a solution containing no inhibitor, and B is the absorbance at 475 nm in a solution containing an inhibitor.

Data set [2] in a line: Radical scavenging effect (DPPH method). Particulars: for IC50: DPPH, absorption at 517 nm; for radical scavenging effect (in words): comment on Table 2, DPPH, 1 hour and 24 hours. The protocol:
Measurement was made using the 1,1-diphenyl-2-picrylhydrazyl (DPPH) method [Blois, M. S. Nature, 1958, 181, 1190]. DPPH is a relatively stable radical with the maximum absorption at 517 nm. The absorption at this wavelength disappears upon removal of the radical. DPPH was purchased from Sigma Co. and dissolved in methanol to make the concentration of 0.5 mM.
First, 100 μl of each solution (10^−l to 10^−6 M) of the individual compounds prepared in examples 1 to 4 were placed in each well of a 96-well plate. After adding 100 μl of DPPH solution and standing the reaction mixture at the room temperature, the absorption at 517 nm was measured for each well using a micro plate reader (BioTeck EL-340). A blank solution was prepared to contain 100 μl of methanol instead of the above compounds. The concentration of the individual compounds was denoted by IC50 at the time when the absorption of the test sample becomes a half of that of the blank solution. The absorption was measured at 1 hour and at 24 hours after treatment.
Background: DPPH is a stable violet radical that fades when it is reduced.

The conditions of data set [3]: female, naked mouse, 24 h, 5 % (w/v), pH 7.4. The protocol: More specifically, a dorsal skin of 8-weeks aged female mouse (naked mouse) was cut off and then 5% (w/v) solution of the test sample was applied in an amount of 50 μl to the skin having a size of 1.7 cm^2. Using the apparatus for measuring transdermal absorption test (Franz cell), after 24 hours, the absorbed material was extracted from 7 ml of the receptor solution [50 mM PBS buffer solution (pH=7.4) containing 2% Vol PO20 polyethylene oleyl ether (HLB=16)] and then quantitatively analyzed by HPLC.

Setting [4] is: 24 hours after treatment, read-out: Radical Scavenging Effect IC50 After 24 hrs.
Where [5] appears, read: read-out: Radical Scavenging Effect IC50 After 1 hour, 1 hour after treatment.

Take `CCOC1=C(O)C(=O)O[C@@H]1[C@@H](O)CO` [3-O-Ethyl-ascorbic acid, reference compound]: the IC50 in data set [1], in data set [2] (setting [4]) and in data set [2] (setting [5]) was 9.8 mM each time.

As to 3-O-PEG350-Ascorbic Acid, the IC50 in data set [1] came to 9.8 mM; in data set [2] (setting [4]), 5.9 mM; in data set [2] (setting [5]), 78.7 mM. The “radical scavenging effect (in words)” value in data set [2] is listed as “an increase in the radical scavenging effect with an elapse of time”.

As for 2-O-PEG350-Ascorbic Acid, the 50% inhibitory concentration (IC50) came to 1.97 mM in data set [1], 5.9 mM in data set [2] (setting [4]) and 7.9 mM in data set [2] (setting [5]). The “radical scavenging effect (in words)” value in data set [2] is given as “potent radical scavenging effect in a short time”.

For the compound 3-O-PEG550-ascorbic acid, the half-maximal inhibitory concentration (IC50) in data set [1] is 7.06 mM. Further, the “radical scavenging effect (in words)” value in data set [2] was “an increase in the radical scavenging effect with an elapse of time”.

On to `O=C1O[C@H]([C@@H](O)CO)C(O)=C1O` [Ascorbic acid], for which the IC50 amounted to 0.47 mM in data set [1], 3.4 mM in data set [2] (setting [4]) and 3.4 mM in data set [2] (setting [5]). Moreover, the “Absorption Rate (%)” value in data set [3] was determined as 1.2%. Further, the “Total Transdermal Absorption Amount” value in data set [3] turned out to be 0.03 mg.

Take 2-O-PEG550-Ascorbic Acid: the half-maximal inhibitory concentration (IC50) in data set [1] worked out at 7.06 mM; in data set [2] (setting [4]), 4.2 mM; in data set [2] (setting [5]), 7.9 mM. The “radical scavenging effect (in words)” value in data set [2] is “potent radical scavenging effect in a short time”.
